Test systems include LXFL 529 NSCLC; RXF-631 renal; HOP-18 NSCLC; SNB-78 CNS; DMS 114 small cell lung; M19-MEL melanoma; P388 leukemia; P388/ADR leukemia; SN12K1 renal.
Experiment in all cases: NCI tumour cell line growth inhibition, 48 h

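1) Cells in 96-well plates. 2) Compound, 48 h, 5 concentrations. 3) Linear interpolation between surrounding doses. 4) Unreached endpoint = highest concentration. TGI marks complete inhibition of growth.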 Where only a bound is given, the exact number is not on record here.

`CC1(C2CCC3(C)OC3C2)CO1` (stereo not given): the TGI in the assay with LXFL 529 NSCLC, with RXF-631 renal, in the assay on HOP-18 NSCLC, in the assay on SNB-78 CNS, in the assay with DMS 114 small cell lung and in the assay on M19-MEL melanoma was over 100 µM throughout.
Turning to `O=C1C=CC(=O)c2c(O)c(N3CCN(CCOCCO)CC3)c(Cl)c(O)c21`, the TGI in the assay on LXFL 529 NSCLC was found to be 0.45 µM; with HOP-18 NSCLC it was 2.73 µM; in the assay on SNB-78 CNS, 1.35 µM; in the assay with M19-MEL melanoma, 1.08 µM.
Regarding `CC(=O)O[C@H]1CC[C@@]2(C)[C@H](CC[C@@H]3[C@@H]2CC[C@]2(C)[C@@H](c4ccc(=O)oc4)C[C@H]4O[C@]342)C1`, the TGI in the assay with P388 leukemia came out at 125 µM; in the assay on P388/ADR leukemia, 125 µM; in the assay with SN12K1 renal, 1.83 µM; in the assay on HOP-18 NSCLC, 9.72 µM; in the assay with SNB-78 CNS, 4.8 µM; in the assay with DMS 114 small cell lung, 1.03 µM. The compound also returned a TGI with M19-MEL melanoma of 7.17 µM.
Consider `CC(=O)CC(=O)CCC(=O)O`, for which the TGI with HOP-18 NSCLC, in the assay on SNB-78 CNS, with DMS 114 small cell lung and in the assay with M19-MEL melanoma was over 100 µM each time.
On to `O=C1C=CC(=O)c2c(Cl)ccc(O)c21`, for which the TGI with P388 leukemia is 3.84 µM; with P388/ADR leukemia, 1.96 µM; in the assay on SN12K1 renal, over 55.2 µM; with HOP-18 NSCLC, 33.4 µM; in the assay on SNB-78 CNS, 41.2 µM; in the assay with DMS 114 small cell lung, 33.6 µM. In the assay on M19-MEL melanoma, this compound showed a TGI of 30 µM.
As for `Cc1csc(NC(=NCCN2CCOCC2)Nc2nc(C)cs2)n1`, the TGI with P388 leukemia was over 31.6 µM; in the assay on P388/ADR leukemia it was over 100 µM; in the assay with SN12K1 renal, over 100 µM; in the assay with HOP-18 NSCLC, over 100 µM; in the assay with SNB-78 CNS, over 100 µM; with DMS 114 small cell lung, over 100 µM. In the assay on M19-MEL melanoma, this compound displayed a TGI of over 100 µM.

The values above are taken from PubChem BioAssay (NCI).
